From article PMC3791449, “Mechanism of amyloid β−protein dimerization determined using single−molecule AFM force spectroscopy” (Scientific Reports, 2013)
Like-named read-outs stand apart in the source and are kept apart here.

Columns and labels:
misfolded Aβ dimers = experiment: Dynamic force spectroscopy (DFS) of misfolded Aβ dimers; type: binding, human; settings: for koff (dissociation rate without applied force) / xβ (potential barrier location): Bell-Evans fit; for koff (dissociation rate without applied force): extrapolated to zero force; for barrier height (ΔG) of dimer dissociation: from mean koff of independent experiments, equation (4); for dimer lifetime (1/koff): zero applied force
Method: The cysteinyl−peptides were covalently immobilized on the tip and the surface via flexible tethers terminated with maleimide groups. […] Peptide aggregation was minimized by using a very low peptide concentration (20 nM) during the coupling reaction with the functionalized mica surface and the tips. Probing was performed by multiple approach−retraction cycles over various spots of the mica surface.
In the DFS approach, multiple force measurements were performed at different pulling rates and the data were grouped into several clusters according to the selected loading rates. […] After extrapolating the data to the zero pulling rate, the intercept and the slope of the linear plots (DFS spectrum) produced characteristics of the complexes, including their stability (off−rate constant koff) and the energy barrier position (xβ)[20][21].
The mean values were calculated from this dataset (Supplementary Table S1) and equation (4) (see Methods) was used to extract the barrier height (ΔG), along with xβ values, to generate the energy profile for the Aβ40 dissociation process.
All cysteinyl−Aβ peptides were synthesized using 9−fluorenylmethoxycarbonyl (FMOC) chemistry and purified by reverse phase high performance liquid chromatography (RP−HPLC). […] Functionalization of AFM tips and mica substrates were prepared according to previously published procedures. Briefly, 20 nM Aβ monomers were immobilized on mica functionalized with aminopropyl silatrane (APS) via PEG 3400 tethers and on AFM tips through maleimide silatrane (MAS). For DFS study, the tip retraction speeds ranged from 100 nm/s to 4000 nm/s. The dwell time was set at 0.3 s when retraction speed reached 1000 nm/s and above. Force curves with rupture event were subject to WLC analysis, as shown below. [drawing 1] Rupture force distributions were fitted with a probability density function: [drawing 2] Dynamic force spectra were fitted with Bell−Evans model[21]: [drawing 3] The energy profiles were reconstructed according to previous papers, using the equation below. [drawing 4] Positions of interacting segments of Aβ monomers within dimers were estimated by subtracting from the measured contour lengths the lengths of all linkers and the distance between N−termini of monomers (see Fig. 1a). The contour length of PEG was estimated with the following equation[28]: [drawing 5] Where Lc(F) is the contour length, Ns is the average number of monomers, Lplanar is the length of monomers with planar conformation, Lhelical is the length of monomers with helical conformation, ΔG(F) is the free energy difference at zero appling force. The Ns is 77 ± 10 for 3400 Da PEG. The Lplanar and Lhelical are 3.58 Å and 2.8 Å, respectively. The ΔG(F) is fixed at 3 kBT. […] All error bars represent SEM. Detailed methods can be found in Supplementary Information.
A 50 mM 1−(3−aminopropyl) silatrane (APS) stock solution was prepared by dissolving the APS powder in deionized (DI) water. The 1.67 mM stock solution of maleimide−polyethylene glycol−succinimidyl valerate (MAL−PEG−SVA; 3.4 kDa Laysan Bio Inc, Arab, AL) was prepared in DMSO (Sigma−Aldrich Inc.) and stored at −20°C. The 10 mM Tris (2−carboxyethyl) phosphine (TCEP) hydrochloride (Hampton Research Inc.) and the 2.94 mM solution of maleimide silatrane (MAS) were prepared in DI water and stored at −20°C. A 10 mM stock solution of β−mercaptoethanol was prepared in 10 mM sodium phosphate, pH 7.4 (“phosphate buffer”) and kept at 4°C. Unless otherwise specified, other reagents used in the experiments were of analytical grade from Sigma−Aldrich.

[1] = cited from earlier work
From the text: (§1) Aberrant folding (misfolding) and aggregation of amyloid proteins are pathological hallmarks of a large class of neurodegenerative diseases, including Alzheimer's disease (AD) (reviewed in[1][2]). In AD, amyloid precursor proteins are sequentially cleaved by β−secretase and γ−secretase, producing the amyloid β−protein (Aβ)[3]. Aβ peptides contain several alloforms with varying sequences of amino acids, dependent on the cleavage sites of γ−secretase.

Aβ peptides = settings: cited from earlier work
From the text: as §1, with “γ−secretase. […] Additional C−terminal modi ... || It is important to compare our data with the aggregation studies of similar Aβ peptide samples.” for “γ−secretase.”

Aβ42 dimers = settings: cited from earlier work
From the text: We have developed a single−molecule atomic force microscopy (SMFS) approach enabling us to probe and characterize the interactions of the peptides and proteins in transient misfolded conformations. In this approach, the protein is end−immobilized on the AFM tip and substrate, allowing us to measure the interprotein interactions at the single−molecule level. The dynamics force spectroscopy (DFS) approach has been quite informative with respect to the lifetimes of transiently formed misfolded dimers (reviewed in[16]).

[2] = experiment #1, retraction 100-4000 nm/s
[3] = experiment #1, retraction 100-4000 nm/s, approach 400 nm/s, trigger force 100 pN, dwell 0.3 s at ≥1000 nm/s, N-terminal Cys tethered, 20 nM coupling
[4] = experiment #2, retraction 100-4000 nm/s
[5] = experiment #3, retraction 100-4000 nm/s
[6] = mean ± SEM of three experiments
[7] = mean ± SEM of three experiments, retraction 100-4000 nm/s
[8] = mean ± SEM of three experiments, DFS

Substance	lifetime increase of dimer vs WT counterpart (misfolded Aβ dimers; DFS, [VPV] mutant vs wild type)	koff (dissociation rate without applied force) (misfolded Aβ dimers; [2]) [s⁻¹]	xβ (potential barrier location) (misfolded Aβ dimers; [3]) [nm]	koff (dissociation rate without applied force) (misfolded Aβ dimers; experiment #2) [s⁻¹]	xβ (potential barrier location) (misfolded Aβ dimers; [4]) [nm]	koff (dissociation rate without applied force) (misfolded Aβ dimers; experiment #3) [s⁻¹]	xβ (potential barrier location) (misfolded Aβ dimers; [5]) [nm]	barrier height (ΔG) of dimer dissociation (misfolded Aβ dimers) [kBT]	koff (dissociation rate without applied force) (misfolded Aβ dimers; [6]) [s⁻¹]	xβ (potential barrier location) (misfolded Aβ dimers; [7]) [nm]	dimer lifetime (1/koff) (misfolded Aβ dimers; [8]) [s]	toxicity of oligomers / aggregates [1]	oligomerization pattern (Aβ peptides)	toxicity compared with other alloforms [1]	segments involved in dimer formation (Aβ42 dimers; in the absence of Cu^2+ cations)	segments involved in dimer formation (Aβ42 dimers; with Cu^2+ cations)	aggregation properties (Aβ peptides)
[VPV]Aβ42: Aβ42 with VPV substitutions (Gly33Val−Val36Pro−Gly38Val); cysteinyl−peptide	more than three times higher	1.1	0.451	2.1	0.337	1.5	0.387	29.0	1.6 ± 0.3	0.392 ± 0.034	0.63 ± 0.12						
[VPV]Aβ40: Aβ40 mutant with VPV substitutions (Gly33Val−Val36Pro−Gly38Val); cysteinyl−peptide		2.2	0.361	1.7	0.293	1.9	0.262	28.8	1.9 ± 0.1	0.305 ± 0.029	0.53	elevated neurotoxicity					
Aβ42: alloform of human amyloid β−protein with two additional C−terminal residues; cysteinyl−peptide			0.299		0.260		0.262			0.274 ± 0.013			prefers to form a pentamer/hexamer structure (paranucleus)	appears to be the most toxic	formed dimers via the C−terminal segments	dimer formation involves the N−terminal segments	
Aβ40: alloform of human amyloid β−protein; cysteinyl−Aβ peptide, Cys residue placed at the N−terminus		9.4	0.203	4.7	0.257	12.9	0.206	27.3	9.0 ± 2.4	0.222 ± 0.018	0.11		rapid equilibrium with coexisting monomers, dimers, trimers, and tetramers				similar
